In article PMC4579270, “Identification and Characterization of an Irreversible Inhibitor of CDK2” (Chemistry & Biology, 2015):

Experiments:
Test in all cases: Dundee protein kinase screen
Format in all cases: biochemical
DAPK1 = DAPK1 (Homo sapiens, UniProt P53355); conditions: DAPK1, 1µM; read-out: %Remaining activity at 1µM NU6300
Protocol: (§1) Prior to determining its cellular activity, we carried out a screen to assess its selectivity against a panel of 131 protein kinases under conditions that would not distinguish between a reversible or irreversible mode of action. […] These 13 kinases and 29 additional kinases, selected for their known sensitivity to other inhibitors within the purine series, were then tested in a modified screening format in which the assay was repeated following a 4-hr pre-incubation (Table S3B). […] However, conformational flexibility around the active site may promote such an interaction with a residue from another part of the structure ([Martin et al., 2012]).
(§2) Table S3, Related to Figure 4. NCL-0006300 protein kinase selectivity. (A) NU6300 was tested at a single concentration of 1µM against 131 protein kinases present in a Dundee protein kinase screen (Bain et al., 2007). Values given are % activity remaining and are the average of duplicate measurements: 0-25% (red), 26-50% (yellow), 51-80% (black) and above 81% (green). The kinase domain sequences (as defined by UniProt) of […]
(§3) have a lysine residue at a position close to CDK2 Lys88 or Lys89. However, in the structure of tyrosine-protein kinase BTK (PDB ID: 3GEN) the residue equivalent to CDK2 Asp86 is Cys481 and therefore there is the potential for a covalent adduct to be formed through this side chain. Ephrin type-B receptor 3 (UniProt entry P54753) also encodes a cysteine residue (Cys717) that by sequence alignment would be predicted to be close to the CDK2 lysine pair. (B) Selected kinases were re-tested in the Dundee kinase screen against NU6300 at a single concentration of 0.5 µM both in the standard assay format and following a 4 hour pre-incubation in the presence of NU6300. Kinases which have very low activity after the 4 hour incubation so that results might not be wholly reliable are boxed in salmon. Kinases where the activity after a 4 hour pre-incubation is < 50% that in the standard assay format are highlighted in red.

DYRK3 = DYRK3 (Homo sapiens, UniProt O43781); conditions: DYRK3, 1µM; read-out: %Remaining activity at 1µM NU6300
Protocol: as §1, §2, §3

EPH-B2 = EPH-B2 (Homo sapiens, UniProt P29323); conditions: EPH-B2, 1µM; read-out: %Remaining activity at 1µM NU6300
Protocol: as §1, §2, §3

ERK1 = ERK1 (Homo sapiens, UniProt P27361); conditions: ERK1, 1µM; read-out: %Remaining activity at 1µM NU6300
Protocol: as §1, §2, §3

GSK3β = GSK3β (Homo sapiens, UniProt P49841); conditions: read-out: %Remaining activity at 1µM NU6300
Protocol: as §1, §2, §3

HER4 = HER4 (Homo sapiens, UniProt Q15303); conditions: HER4, 1µM; read-out: %Remaining activity at 1µM NU6300
Protocol: as §1, §2, §3

MARK3 = MARK3 (Homo sapiens, UniProt P27448); conditions: MARK3, 1µM; read-out: %Remaining activity at 1µM NU6300
Protocol: as §1, §2, §3

MEKK1 = MEKK1 (Homo sapiens, UniProt Q13233); conditions: MEKK1, 1µM; read-out: %Remaining activity at 1µM NU6300
Protocol: as §1, §2, §3

MKK2 = MKK2 (Homo sapiens, UniProt P36507); conditions: MKK2, 1µM; read-out: %Remaining activity at 1µM NU6300
Protocol: as §1, §2, §3

MST2 = biological target: T1, MST2 (Homo sapiens, UniProt Q13188); conditions: MST2, 1µM; read-out: %Remaining activity at 1µM NU6300
T1 sequence (Q13188 1-491): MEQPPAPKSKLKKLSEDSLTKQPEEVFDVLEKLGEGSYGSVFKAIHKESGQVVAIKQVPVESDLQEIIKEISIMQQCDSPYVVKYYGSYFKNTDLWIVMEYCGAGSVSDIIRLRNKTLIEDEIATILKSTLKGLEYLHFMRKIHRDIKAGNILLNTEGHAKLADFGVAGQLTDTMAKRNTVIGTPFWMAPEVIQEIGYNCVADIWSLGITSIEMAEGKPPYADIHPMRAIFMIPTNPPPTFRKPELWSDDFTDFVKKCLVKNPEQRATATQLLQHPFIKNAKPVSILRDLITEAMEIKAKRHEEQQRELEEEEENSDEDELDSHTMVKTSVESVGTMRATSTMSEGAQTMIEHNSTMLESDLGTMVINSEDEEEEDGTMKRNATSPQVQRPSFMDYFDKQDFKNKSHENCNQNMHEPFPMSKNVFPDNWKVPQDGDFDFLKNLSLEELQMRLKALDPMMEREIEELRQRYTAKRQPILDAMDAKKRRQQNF
Protocol: as §1, §2, §3

PAK2 = PAK2 (Homo sapiens, UniProt Q13177); conditions: PAK2, 1µM; read-out: %Remaining activity at 1µM NU6300
Protocol: as §1, §2, §3

SGK1 = SGK1 (Homo sapiens, UniProt O00141); conditions: SGK1, 1µM; read-out: %Remaining activity at 1µM NU6300
Protocol: as §1, §2, §3

TSSK1 = biological target: T2, TSSK1 (Homo sapiens, UniProt Q9BXA7); conditions: TSSK1, 1µM; read-out: %Remaining activity at 1µM NU6300
T2 sequence (Q9BXA7 1-367): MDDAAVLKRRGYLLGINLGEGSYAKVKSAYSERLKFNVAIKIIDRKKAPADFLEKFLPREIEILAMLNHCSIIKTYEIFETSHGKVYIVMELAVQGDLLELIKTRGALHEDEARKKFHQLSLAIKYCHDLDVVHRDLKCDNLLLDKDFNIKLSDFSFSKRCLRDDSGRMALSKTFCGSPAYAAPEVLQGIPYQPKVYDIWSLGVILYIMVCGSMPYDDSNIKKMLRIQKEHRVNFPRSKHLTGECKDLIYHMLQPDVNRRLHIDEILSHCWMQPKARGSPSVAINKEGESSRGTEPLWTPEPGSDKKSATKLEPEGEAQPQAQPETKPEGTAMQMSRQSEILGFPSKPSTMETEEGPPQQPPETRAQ
Protocol: as §1, §2, §3

VEG-FR1 = VEG-FR1 (Homo sapiens, UniProt P17948); conditions: VEG-FR1, 1µM; read-out: %Remaining activity at 1µM NU6300
Protocol: as §1, §2, §3

p38α MAPK = p38α MAPK (Homo sapiens, UniProt Q16539); conditions: read-out: %Remaining activity at 1µM NU6300
Protocol: as §1, §2, §3

Sequence of VEG-FR1 (P17948 27-1338): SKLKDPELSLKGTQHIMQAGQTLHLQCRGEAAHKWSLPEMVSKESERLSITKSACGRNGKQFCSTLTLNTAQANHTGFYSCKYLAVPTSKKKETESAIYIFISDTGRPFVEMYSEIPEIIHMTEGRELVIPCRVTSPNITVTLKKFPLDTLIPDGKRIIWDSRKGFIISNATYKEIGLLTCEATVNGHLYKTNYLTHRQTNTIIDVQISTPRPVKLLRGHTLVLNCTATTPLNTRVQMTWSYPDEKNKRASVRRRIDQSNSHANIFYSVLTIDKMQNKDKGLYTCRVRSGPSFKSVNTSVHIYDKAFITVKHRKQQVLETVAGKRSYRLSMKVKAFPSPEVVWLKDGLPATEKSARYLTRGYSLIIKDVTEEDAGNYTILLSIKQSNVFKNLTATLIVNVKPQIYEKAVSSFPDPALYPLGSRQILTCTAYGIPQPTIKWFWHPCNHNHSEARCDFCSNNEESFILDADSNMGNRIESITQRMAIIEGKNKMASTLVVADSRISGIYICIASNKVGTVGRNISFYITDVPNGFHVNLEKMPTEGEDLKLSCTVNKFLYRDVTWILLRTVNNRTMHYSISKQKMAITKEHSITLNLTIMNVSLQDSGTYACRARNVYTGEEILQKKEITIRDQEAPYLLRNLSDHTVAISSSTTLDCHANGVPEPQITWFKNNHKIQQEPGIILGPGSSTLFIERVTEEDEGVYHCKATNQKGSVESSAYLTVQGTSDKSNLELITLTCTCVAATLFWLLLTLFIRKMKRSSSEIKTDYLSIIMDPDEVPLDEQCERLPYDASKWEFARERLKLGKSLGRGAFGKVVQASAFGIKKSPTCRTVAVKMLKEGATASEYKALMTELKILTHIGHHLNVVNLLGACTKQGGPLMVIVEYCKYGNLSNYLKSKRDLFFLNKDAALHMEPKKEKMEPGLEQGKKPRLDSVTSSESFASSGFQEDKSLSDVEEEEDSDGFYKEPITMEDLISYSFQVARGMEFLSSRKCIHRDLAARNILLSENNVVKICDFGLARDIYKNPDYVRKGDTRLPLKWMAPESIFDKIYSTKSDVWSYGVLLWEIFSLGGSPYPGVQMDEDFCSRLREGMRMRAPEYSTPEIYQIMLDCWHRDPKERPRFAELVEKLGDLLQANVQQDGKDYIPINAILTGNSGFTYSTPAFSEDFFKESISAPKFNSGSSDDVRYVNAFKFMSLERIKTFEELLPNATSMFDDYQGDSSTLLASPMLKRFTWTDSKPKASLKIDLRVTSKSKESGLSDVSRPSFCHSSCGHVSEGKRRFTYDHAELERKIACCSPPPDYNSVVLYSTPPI
Sequence of EPH-B2 (P29323 19-1055): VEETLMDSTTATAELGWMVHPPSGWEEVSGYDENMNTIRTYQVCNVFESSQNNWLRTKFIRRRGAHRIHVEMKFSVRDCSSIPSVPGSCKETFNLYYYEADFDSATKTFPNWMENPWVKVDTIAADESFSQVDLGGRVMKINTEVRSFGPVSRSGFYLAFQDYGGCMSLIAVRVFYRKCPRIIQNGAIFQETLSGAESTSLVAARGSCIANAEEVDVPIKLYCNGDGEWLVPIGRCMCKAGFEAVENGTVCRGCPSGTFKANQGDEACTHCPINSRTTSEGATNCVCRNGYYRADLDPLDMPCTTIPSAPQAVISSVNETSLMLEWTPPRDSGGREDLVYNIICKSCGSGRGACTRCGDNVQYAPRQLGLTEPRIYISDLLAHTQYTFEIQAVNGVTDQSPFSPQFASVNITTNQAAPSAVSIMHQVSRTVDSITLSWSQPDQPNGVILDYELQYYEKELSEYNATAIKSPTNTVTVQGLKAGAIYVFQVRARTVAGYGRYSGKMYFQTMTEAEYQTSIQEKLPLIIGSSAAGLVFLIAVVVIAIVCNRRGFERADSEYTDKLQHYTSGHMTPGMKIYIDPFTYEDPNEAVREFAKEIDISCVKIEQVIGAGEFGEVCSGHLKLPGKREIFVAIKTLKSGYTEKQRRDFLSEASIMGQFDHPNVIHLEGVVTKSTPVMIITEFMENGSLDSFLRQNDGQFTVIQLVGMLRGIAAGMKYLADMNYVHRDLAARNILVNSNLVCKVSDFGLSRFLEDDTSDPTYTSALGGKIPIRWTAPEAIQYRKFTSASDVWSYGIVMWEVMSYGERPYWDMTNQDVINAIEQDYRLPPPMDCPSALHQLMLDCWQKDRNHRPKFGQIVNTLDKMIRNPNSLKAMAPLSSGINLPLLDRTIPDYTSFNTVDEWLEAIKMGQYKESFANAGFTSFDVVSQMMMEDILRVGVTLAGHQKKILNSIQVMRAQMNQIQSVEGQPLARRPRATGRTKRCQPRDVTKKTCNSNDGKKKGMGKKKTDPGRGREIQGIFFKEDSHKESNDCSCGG
Sequence of DYRK3 (O43781 whole entry): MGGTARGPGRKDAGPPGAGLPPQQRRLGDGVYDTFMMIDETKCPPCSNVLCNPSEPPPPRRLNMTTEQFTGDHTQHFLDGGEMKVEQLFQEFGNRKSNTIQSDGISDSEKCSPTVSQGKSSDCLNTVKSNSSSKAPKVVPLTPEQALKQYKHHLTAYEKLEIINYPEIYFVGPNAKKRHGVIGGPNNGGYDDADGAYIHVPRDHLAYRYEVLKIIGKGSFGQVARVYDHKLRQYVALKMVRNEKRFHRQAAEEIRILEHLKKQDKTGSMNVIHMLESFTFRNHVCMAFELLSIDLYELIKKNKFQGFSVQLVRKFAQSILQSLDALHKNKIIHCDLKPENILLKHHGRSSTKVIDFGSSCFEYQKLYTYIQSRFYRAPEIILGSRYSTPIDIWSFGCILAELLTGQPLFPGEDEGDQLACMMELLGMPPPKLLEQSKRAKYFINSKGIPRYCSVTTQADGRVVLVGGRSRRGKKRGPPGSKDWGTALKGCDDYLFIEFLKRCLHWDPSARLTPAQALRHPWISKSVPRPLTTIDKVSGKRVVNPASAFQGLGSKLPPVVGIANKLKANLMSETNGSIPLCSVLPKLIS
Sequence of HER4 (Q15303 26-1308): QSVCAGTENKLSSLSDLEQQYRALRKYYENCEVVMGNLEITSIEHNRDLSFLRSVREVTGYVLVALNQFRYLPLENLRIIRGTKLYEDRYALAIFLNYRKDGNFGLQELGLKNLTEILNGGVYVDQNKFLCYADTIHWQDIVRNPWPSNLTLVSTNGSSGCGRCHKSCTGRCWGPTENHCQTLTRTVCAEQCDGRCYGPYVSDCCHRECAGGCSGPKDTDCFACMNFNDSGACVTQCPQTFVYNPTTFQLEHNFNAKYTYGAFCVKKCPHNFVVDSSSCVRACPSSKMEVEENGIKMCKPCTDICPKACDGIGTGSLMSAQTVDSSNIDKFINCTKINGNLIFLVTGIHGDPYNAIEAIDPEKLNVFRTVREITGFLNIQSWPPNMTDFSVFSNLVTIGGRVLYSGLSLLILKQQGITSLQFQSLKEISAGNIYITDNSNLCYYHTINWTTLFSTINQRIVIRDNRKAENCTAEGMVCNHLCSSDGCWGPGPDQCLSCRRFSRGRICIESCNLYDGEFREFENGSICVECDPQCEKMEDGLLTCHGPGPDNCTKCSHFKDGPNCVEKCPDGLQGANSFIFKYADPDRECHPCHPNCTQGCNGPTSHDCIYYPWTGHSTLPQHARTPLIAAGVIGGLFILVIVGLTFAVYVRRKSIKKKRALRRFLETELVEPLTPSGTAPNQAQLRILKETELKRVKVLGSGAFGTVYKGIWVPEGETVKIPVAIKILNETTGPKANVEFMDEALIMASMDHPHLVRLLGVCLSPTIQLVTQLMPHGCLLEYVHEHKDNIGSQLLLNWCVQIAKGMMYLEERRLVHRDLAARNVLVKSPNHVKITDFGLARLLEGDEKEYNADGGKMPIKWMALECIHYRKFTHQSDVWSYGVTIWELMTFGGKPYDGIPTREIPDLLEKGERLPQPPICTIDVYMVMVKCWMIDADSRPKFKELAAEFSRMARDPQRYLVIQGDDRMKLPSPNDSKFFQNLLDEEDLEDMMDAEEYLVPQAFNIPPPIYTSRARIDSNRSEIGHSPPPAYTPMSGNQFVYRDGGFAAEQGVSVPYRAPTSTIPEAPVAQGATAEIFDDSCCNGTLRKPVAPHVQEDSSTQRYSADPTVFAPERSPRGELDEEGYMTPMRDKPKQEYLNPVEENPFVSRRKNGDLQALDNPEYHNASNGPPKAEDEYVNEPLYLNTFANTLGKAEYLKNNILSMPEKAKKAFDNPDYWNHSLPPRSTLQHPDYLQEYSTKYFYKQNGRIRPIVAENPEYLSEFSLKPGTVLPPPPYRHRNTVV
Sequence of MARK3 (P27448 whole entry): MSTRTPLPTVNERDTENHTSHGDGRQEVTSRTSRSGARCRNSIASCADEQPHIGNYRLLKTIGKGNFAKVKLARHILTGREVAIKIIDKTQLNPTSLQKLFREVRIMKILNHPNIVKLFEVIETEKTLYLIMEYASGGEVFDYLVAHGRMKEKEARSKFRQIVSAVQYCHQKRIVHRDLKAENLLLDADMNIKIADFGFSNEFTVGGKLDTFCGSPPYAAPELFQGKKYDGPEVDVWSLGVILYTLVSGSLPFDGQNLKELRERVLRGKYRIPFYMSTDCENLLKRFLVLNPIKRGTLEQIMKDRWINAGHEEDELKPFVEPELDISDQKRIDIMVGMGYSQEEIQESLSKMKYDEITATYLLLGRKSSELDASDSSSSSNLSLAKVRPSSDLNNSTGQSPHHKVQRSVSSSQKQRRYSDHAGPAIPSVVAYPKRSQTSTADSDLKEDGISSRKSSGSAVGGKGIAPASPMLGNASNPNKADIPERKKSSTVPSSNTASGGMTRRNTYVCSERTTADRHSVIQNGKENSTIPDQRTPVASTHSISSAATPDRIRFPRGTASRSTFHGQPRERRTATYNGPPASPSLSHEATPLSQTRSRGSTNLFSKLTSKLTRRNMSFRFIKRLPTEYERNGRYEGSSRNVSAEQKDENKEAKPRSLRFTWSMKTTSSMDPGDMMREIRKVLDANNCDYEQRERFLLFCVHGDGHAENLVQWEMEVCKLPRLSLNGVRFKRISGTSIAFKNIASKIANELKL

Question: What does the source list for `C=CS(=O)(=O)c1ccc(Nc2nc(OCC3CCCCC3)c3nc[nH]c3n2)cc1` [NU6300, 6-(cyclohexylmethoxy)-N-(4-(vinylsulfonyl)phenyl)-9H-purin-2-amine]?
Answer: remaining activity at 1 µM (DAPK1): 83%; remaining activity at 1 µM (DYRK3): 91%; remaining activity at 1 µM (EPH-B2): 96%; remaining activity at 1 µM (ERK1): 70%; remaining activity at 1 µM (GSK3β): 42%; remaining activity at 1 µM (HER4): 73%; remaining activity at 1 µM (MARK3): 71%; remaining activity at 1 µM (MEKK1): 89%; remaining activity at 1 µM (MKK2): 84%; remaining activity at 1 µM (MST2): 41%; remaining activity at 1 µM (PAK2): 92%; remaining activity at 1 µM (SGK1): 93%; remaining activity at 1 µM (TSSK1): 26%; remaining activity at 1 µM (VEG-FR1): 14%; remaining activity at 1 µM (p38α MAPK): 81%
